Assay results as given in ChEMBL document CHEMBL3507680, “University of Dundee, Gates Library screen for HepG2 cell viability”.

Assay: Human HepG2 cell viability assay in 384 well format
Assay type: toxicity, cell-based
Set-up: dose 125 nL, time 70.5 hour; cytotoxicity at 70.5 h: concentration not given beside the values
Conditions: HepG2 cells, read-out: Inhibition

| Compound | cytotoxicity at 70.5 h [%] |
| --- | --- |
| O=S(=O)(CCNCc1ccc2c(c1)CCO2)N1CCOCC1 | 12.8 |
| O=C(NC1CCCNC1=O)c1ccc2nc(-c3ccc(F)cc3)cn2c1 (stereo not given) | 15 |
| O=C(NCCn1nc(C2CCNC2)c2cccnc21)c1ccccn1 (stereo not given) | -2.16 |
| CCc1ccc(NC(=O)c2n[nH]c(-n3cnnc3)n2)cc1 | -6.66 |
| COc1cccc(COCC(=O)N2CCCC(c3cc(C)[nH]n3)C2)c1 (stereo not given) | -14.7 |
| NC[C@H]1CC[C@H](C(NC(=O)C2CC2)c2ccccn2)CC1 (stereo not given in full) | -6.56 |
| Cn1ncc2c1C(COCC1CC1)CN(Cc1cccnc1)C2 (stereo not given) | -4.66 |
| Cc1nccnc1N1C[C@H]2CN(C3CCOCC3)C[C@@]2(C(=O)O)C1 | 2.61 |
| O=C(O)c1csc(S(=O)(=O)N2CCCc3cccc(OC(F)F)c32)c1 | -5.21 |
| Cc1ccc2nc(C)c(C)c(C(=O)N3CCS(=O)(=O)CC3)c2c1 | -12.9 |
| CCCn1[nH]cc/c1=N\C(=O)CN1CCCC1Cn1cccn1 (stereo not given) | -6.25 |
| COc1ccccc1S(=O)(=O)N1CCC2(CC1)[C@H](O)C[C@@H]2O | -10.2 |
| COc1ccc(F)cc1C(=O)C1CCCN(Cc2ccc(C)s2)C1 (stereo not given) | -12.9 |
| CC(C)CN(CC(O)c1ccc(F)cc1)C(=O)c1cnsn1 (stereo not given) | -3.42 |
| Cc1noc(C(C)N2CCN(CC(=O)N3CCCC3)CC2)n1 (stereo not given) | -1.93 |
| CNC(=O)C1(CCCc2ccncc2)CCCCN1 (stereo not given) | 15.5 |
| Cc1cc(C)n(C2CN(CC(=O)N(C)Cc3ccco3)C2)n1 | -6.63 |
| O=C(c1ccoc1)N1CCOCC2(CCN(C3CCOCC3)C2)C1 (stereo not given) | -2.14 |
| CCCc1nnc(NC(=O)N2CCCC(NC(C)=O)C2)s1 (stereo not given) | -4.43 |
| O=C(CCc1ccco1)NS(=O)(=O)N1CCOc2ccccc21 | -1.31 |
| N#Cc1ccnc(N2CCN(Cc3cccc(F)c3)CC2)c1 | -6.08 |
| O=C(NCCO)Nc1cnc2cc(Cl)ccc2c1O | -5.27 |
| COc1ccc(CCN2CCCC(CN(C)Cc3[nH]cnc3C)C2)cc1 (stereo not given) | 1.62 |

| Compound | cytotoxicity at 70.5 h [%] |
| --- | --- |
| CN1CCC2(Cc3ccccc3CN(C(=O)CCN)C2)C1 (stereo not given) | 27.3 |
| NC(=O)c1cc2c(nc1-c1ccc3c(c1)CCO3)CCC2 | -5.32 |
| O=C(NCCNc1ncccn1)C1CCN(C(=O)N2CCCC2)CC1 | -12.3 |
| CCOCCCNC(=O)c1cc(C)nc(N2CCCCC2)n1 | -6.17 |
| CCN1CCN(C(=O)NCc2cccc(-c3cnn(C)c3)c2)CC1 | -2.59 |
| COCc1noc(-c2cc(Cl)c3c(c2)OCO3)n1 | -19.3 |
| CCn1cc(C(=O)NCc2ccc3c(c2)OCO3)c(C)n1 | -1.15 |
| CNc1ccc(CC2CCCN(C(=O)c3cnco3)C2)nn1 (stereo not given) | -9.21 |
| CS(=O)(=O)NC1CCCN(C(=O)COCc2ccccc2)C1 (stereo not given) | -10.6 |
| CCN(Cc1ccc(C)o1)C(=O)C(C)n1ccnc1C(C)C (stereo not given) | -16.9 |
| O=C(CC1CC1)N[C@@H]1CN(C(=O)c2ccoc2)C[C@@H]2CCCO[C@@H]21 | -12.7 |
| CC(=O)Nc1nc(CN(C)CC2CCCN2c2cccnn2)cs1 (stereo not given) | -12.7 |
| CCC(=O)N1CCCN(Cc2cc(F)cc(Br)c2)CC1 | 16.2 |
| CNc1snc(C)c1C(=O)N1CCCC(n2ccnc2C(C)C)C1 (stereo not given) | -5.8 |
| CC(C)NC1CCc2c(ccc(=O)n2CC2CC2)C1 (stereo not given) | 4.51 |
| O=C1CCC(c2nc(C3CCN(C(=O)Cc4cccs4)CC3)no2)N1 (stereo not given) | -6.58 |
| CC(C)c1cc(C(=O)N2CCCC3(CCNC3)C2)no1 (stereo not given) | -3.49 |
| CC(c1cccnc1)N(C)S(C)(=O)=O (stereo not given) | -2.51 |
| O=C(O)Cn1nc(-c2ccccc2F)ccc1=O | 2.69 |
| CN1CCOC(CNC(=O)COc2ccc(F)cc2F)C1 (stereo not given) | 0.568 |
| O=C1CC(Cc2ccc(NC(=O)c3cccc(F)c3)cc2)C(=O)N1 (stereo not given) | -3.69 |
| Cc1cc(C)n(CC2CCCN2C(=O)Cc2c(C)noc2C)n1 (stereo not given) | 7.13 |
| CSC(C)(C)CNC(=O)NC1CCN(CC=C(C)C)CC1 | 31.2 |

| Compound | cytotoxicity at 70.5 h [%] |
| --- | --- |
| Cc1cnn(C2CCCN(C(=O)c3ccnc(N(C)C)c3)C2)c1 (stereo not given) | 28.8 |
| NC(=O)C1CCCN(Cc2c(-c3ccco3)[nH]c3ncccc23)C1 (stereo not given) | -10.6 |
| Cc1cc(C(=O)N2CCc3[nH]cnc3C2C(=O)O)c(-c2ccccc2)o1 (stereo not given) | -3.87 |
| Cc1cc(C(=O)CN2C(=O)c3ccccc3CS2(=O)=O)c(C)[nH]1 | -6.26 |
| Cc1nnc(C2CCN(C(=O)c3ccc(-n4cccc4)cc3)CC2)s1 | 28 |
| Cc1ccccc1N1CCCN(C(=O)CCc2nncn2C)CC1 | -7.29 |
| COCC1CN(C(=O)COc2ccc(C)cc2)Cc2cn(C)nc21 (stereo not given) | -2.9 |
| CS(=O)(=O)NC(=O)CCc1cccc(OC2CCCC2)c1 | -5.51 |
| Cc1cnn(CC(C)NCc2nc(-c3ccoc3)no2)c1 (stereo not given) | 38.1 |
| Cc1cnn(CCCNC(=O)C2CCCCN2Cc2ccncc2)c1 (stereo not given) | -4.19 |
| Cc1cc(NC(=O)C(c2cccc(F)c2)N2CCOCC2)ccn1 (stereo not given) | 13.3 |
| CC(C)NC(=O)N1CCc2onc(C(=O)Nc3cccnc3)c2C1 | -9.09 |
| CCc1cc(N[C@H](C(N)=O)[C@@H](C)CC)n2nccc2n1 | -1.65 |
| O=C(NC1CCN(c2snc3ccccc23)CC1)C1CCC1 | 14.4 |
| O=C1[C@H]2CN(Cc3ccoc3)C[C@H]2CN1CCN1CCCC1 | -12.5 |
| Cc1cc(C[C@@H]2CCC[C@H]2NCc2cc(C)c(O)c(C)c2)on1 | 2.36 |
| CN(Cc1ccccc1)C1COC2(CCN(Cc3nccs3)CC2)C1 (stereo not given) | 10 |
| CSCCC(C)(O)CNS(=O)(=O)Cc1ccc(F)cc1 (stereo not given) | -17 |
| CCCc1nc(C)cc(N2CCC3(CCC(=O)N(CCCO)C3)CC2)n1 | -7.61 |
| CC(C)(C)c1n[nH]c(C2CN(CCNC3CCCCC3)CCO2)n1 (stereo not given) | -1.09 |
| Cc1nc(C)n(CC2CCCCN2CCCS(=O)(=O)N(C)C)n1 (stereo not given) | 3.2 |
| COc1ccc(C)cc1CN1CCOC(Cn2nc(C)nc2C)C1 (stereo not given) | -19.6 |
| O=C(c1cccnc1N1CCCC1)N1CCOC(c2ccccc2)C1 (stereo not given) | -2.27 |

| Compound | cytotoxicity at 70.5 h [%] |
| --- | --- |
| CN(C)CCN1CC2(CCN(C(=O)c3cnccn3)CC2)OC1=O | -2.71 |
| Cc1ccc(Oc2ncccc2CNC2CCCCC2)cn1 | -5.62 |
| CC(=O)N(Cc1ncc(C)o1)C1CCN(Cc2ccon2)C1 (stereo not given) | 22.2 |
| COC1CN(C(=O)Nc2ccccc2)CCC(=O)N(C)c2ccccc21 (stereo not given) | -0.759 |
| O=C(CCCN1CCOCC1)N1CCCC(CO)(CC2CC2)C1 (stereo not given) | -9.81 |
| Cc1nc(C2CCCN2CC(=O)NCCOc2cccc(F)c2)no1 (stereo not given) | 19.2 |
| CCc1noc(CN(C)CCC(=O)Nc2ccccc2C#N)n1 | -1.02 |
| CC(CCc1ccccc1)CC(=O)NC1CCN(CC(N)=O)CC1 (stereo not given) | 0.475 |
| CCN(CC)CCCNCc1cc2cc(C)ccc2[nH]c1=O | 7.87 |
| CC(=O)Nc1nc(C(=O)N2CCCC2Cn2cccn2)cs1 (stereo not given) | -0.875 |
| O=C(Cc1cccnc1)N1CCC(OCc2ccccc2)CC1 | -11.4 |
| CCC(C)N(Cc1sccc1C)C(=O)c1ccc(S(C)(=O)=O)cc1 (stereo not given) | -4.15 |
| CC(NCc1nnc2n1CCCC2)C(=O)N1CCc2sccc2C1 (stereo not given) | -2.4 |
| Cc1cc2ccccc2n1CCC(=O)NCCCc1nnc(N)s1 | 33.9 |
| Cc1ncc(CN(C)C2CCCN(CCc3ccccc3)C2)n1C (stereo not given) | -9.12 |
| COc1ccc2c(c1)CN(CC(=O)NC1CCCC1)CC2 | -12.6 |
| CNC(=O)c1ccc2c(c1)C1(CCN(C(C)C)CC1)C(=O)N2 | 2.6 |
| O=C(NCCCOCC1CCCO1)c1cccnc1N1CCOCC1 (stereo not given) | 36.7 |
| O=C(CN(Cc1cccs1)C1CCS(=O)(=O)C1)NC1CCCCC1 (stereo not given) | 26.4 |
| CC(=O)N1CCCC(c2ccc3sc(N)nc3n2)C1 (stereo not given) | -8.18 |
| O=C(CNC(=O)C1CC1)NCCOc1cccc(Cl)c1Cl | 31.3 |
| Oc1cc(C2CCCCN2C2CCCC2)nc(-c2ccncc2)n1 (stereo not given) | -14.1 |
| c1csc(N2CCN(c3ncnc4sccc34)CC2)n1 | -7.71 |

| Compound | cytotoxicity at 70.5 h [%] |
| --- | --- |
| Cc1ccc(N2C[C@@H](CN3CCOCC3)[C@@H](CO)C2)nn1 | -16.8 |
| O=C(CN(C1=NCCCC1)c1ccccc1)c1ccc(OC(F)F)cc1 | -4.12 |
| Cc1n[nH]c(C2CN(C(=O)CCc3ccco3)CCO2)n1 (stereo not given) | 9.82 |
| CN(C(=O)NCCCN1CCCC1)C1CCN(c2ccccc2)C1=O (stereo not given) | 4.81 |
| N#Cc1nccnc1N1CCC(CSc2ccccc2)C1 (stereo not given) | -9.74 |
| C[C@@H]1CN(C(=O)CCc2nncn2C)CC[C@@]1(O)C1CCC1 | -5.47 |
| CCc1nc(CC(=O)N2CCCCC2Cn2cccn2)cs1 (stereo not given) | 19 |
| Cc1ccnc(NCCNC(=O)CCNC(=O)c2ccccc2F)c1 | 1.01 |
| CNc1nc(C(=O)N2CCCC(CO)(CCCOC)C2)cs1 (stereo not given) | -4.71 |
| CCNC(=O)[C@@H]1C[C@H](N)CN1C(=O)CCc1ccccc1Cl | -4.67 |
| CCCc1ccc(CN2CCC3(CCC(=O)N(C)CC3)CC2)o1 | 17.3 |
| Cc1nnc2n1CCN(C(=O)CN1C(=O)CCCc3ccccc31)C2 | 12.9 |
| O=C(CN1CCOC(Cn2cccn2)C1)NC(C1CC1)C1CC1 (stereo not given) | -6.99 |
| CN(Cc1ccco1)C(=O)NC(Cn1ccnc1)C(C)(C)C (stereo not given) | -5.15 |
| O=C1CCN(C(=O)CCc2cc(Br)cs2)CCN1 | -10.5 |
| CCn1cc(CN2CCc3nc(-c4ccccn4)nc(O)c3C2)cn1 | -10 |
| COCCN(C)CCN1CC2(CCN(C3CCCCC3)CC2)OC1=O | -4.75 |
| Cn1ccc2ccnc(CC3CN(C(=O)c4cscn4)C3)c21 | -2.15 |
| CC(C)CCC(=O)N(C)CC(=O)Nc1ccc(Br)cn1 | 43.7 |
| CNS(=O)(=O)c1cccc(C(C)NCc2cccc(OC)c2)c1 (stereo not given) | 10.9 |
| CCc1nc(C(=O)N2CCCC2)nn1-c1ccccc1Cl | 10.2 |
| O=C1CCCN1Cc1nnc2n1CCCN(Cc1ccco1)C2 | -0.266 |
| CC(=O)N1CCO[C@@H]2CN(C(=O)NCc3cccnc3)CC[C@@H]2C1 | -2.08 |
